Values joined by “and” are separate entries in the source; they are usually repeats but may differ in a detail not shown here. Equal entries are not always repeated. Where two headings read alike, the source gives them in different places. *1 amine or outer side, *2 acyl side, *3 side chain or, on linkers, in order; H or OH if unused. Where a SMILES comes first, the peptide text is derived from it. Bridges are numbered along the chain shown (N, C = ends). [ ]: non-standard residue; d: D form. Orn(fluoroacetimidoyl) = N=C(CF)NCCC[C@H](N)C(=O)O; Orn(acetimidoyl) = CC(=N)NCCC[C@H](N)C(=O)O; X1 = N=C(CCl)NCCC[C@H](N[*:1])C(=O)[*:2]
Assays:
[1] = molecular target: T1, PADI4 (Homo sapiens, UniProt Q9UM07); test: Surface plasmon resonance (SPR), single cycle kinetics; format: binding; settings: for Kd: reversible binding, 1:1 binding model; for Ki: k-1/k+1
T1 construct: His6; made in house
Experimental: S8. Surface plasmon resonance (SPR)
Using a Biacore S200 (GE Healthcare), biotinylated His-PADI4 (80 nM) was immobilised on a CAP chip (GE Healthcare) to a response unit of approx. 3000. At 25 °C, single cycle kinetics mode was used with 5 samples of a 3-fold dilution series of peptides PADI4_3_H4(2), cP4_2, […]
mM HEPES, 150 mM NaCl, 10 mM CaCl2, 0.05% Tween-20, 0.1% DMSO (pH 7.5). After each cycle, regeneration of the chip was carried out as per the manufacturer’s protocol. Data were analysed with the Biacore S200 Evaluation Software, each in triplicate. Warhead-containing peptides were analysed using the two-state reaction model, with the rate constant for the reverse second step (k-2) set to zero. The equilibrium constant of the reversible binding step, Ki, was calculated as the ratio of k-1/k+1 and the rate constant of the irreversible chemical step, kinact, as k+2. The Arg4, Cit4 and Me4 peptides were fitted using a 1:1 binding model. […]

[2] = molecular target: T1, PADI4; test: COLDER inhibition assay, BAEE substrate, with or without 1 h preincubation; format: biochemical; settings: for IC50: COLDER; for remaining activity at 0.003 µM: peptide 0.003 µM; for remaining activity at 0.01 µM: peptide 0.01 µM; for remaining activity at 0.03 µM: peptide 0.03 µM; for remaining activity at 0.1 µM: peptide 0.1 µM; for remaining activity at 0.3 µM: peptide 0.3 µM; for remaining activity at 1 µM: peptide 1 µM; for remaining activity at 3 µM: peptide 3 µM; for remaining activity at 30 µM: peptide 30 µM; for remaining activity at 50 µM: peptide 50 µM; for remaining activity at 10 µM: peptide 10 µM
Experimental: PADI4 citrullination activity was analysed using the COLDER assay in 96-well plates. Peptide dilutions were prepared from a 500 µM stock, to give a 10 times concentrated dilution series (500 µM, 300 µM, 100 µM, 30 µM, 10 µM, 3 µM, 1 µM, 0.3 µM, 0.1 µM and 0.03 µM) in COLDER buffer (50 mM HEPES, 150 mM NaCl and 2 mM DTT, pH 7.5) containing 1% DMSO. In triplicate, each was diluted 10-fold further when mixed with 50 nM His-PADI4, 0.6 mg/mL BSA and 10 mM CaCl2, in COLDER buffer. With or without one hour of incubation, 10 mM N^α-Benzoyl-L-arginine ethyl ester hydrochloride (BAEE, Merck) was added to initiate the reaction (50 µL final volume). After 30 min at rt, EDTA (50 mM final concentration) was used to quench the reaction and 200 µL of COLDER solution containing 20 mM Diacetyl monoxime/2,3-butanedione monoxime (Merck), 0.5 mM Thiosemicarbazide (Acros Organics), 2.25 M H3PO4, 4.5 M H2SO4 and 1.5 mM NH4Fe(SO4)2.12H2O was added to each well. Samples were incubated for 20 min at 95 °C before measuring absorbance at 540 nm on a CLARIOstar Plus (BMG LABTECH). Data analysis was performed with GraphPad Prism. Data are presented as the average ± standard error of the mean from at least two independent replicates.

[3] = no preincubation of peptide and PADI4, 10 mM CaCl2, read-out: IC50 Values 0 h preincubation
[4] = no preincubation, read-out: PADI4 activity, normalised (Figure 4b dose-response)
[5] = each replicate, read-out: k2 / kinact
[6] = two-state reaction model, k+2, read-out: SPR kinact (converted)
[7] = 1 h preincubation of peptide and PADI4, 10 mM CaCl2, read-out: IC50 Values 1 h preincubation
[8] = T=0, values starred, read-out: PADI4 activity normalised to 0.1% DMSO
[9] = T=0, read-out: PADI4 activity normalised to 0.1% DMSO
[10] = T=1, read-out: PADI4 activity normalised to 0.1% DMSO
[11] = 1 h, T=1 (1 h preincubation), read-out: PADI4 activity, dose-response data of Figure S15 (individual replicates)
[12] = T=0 (no preincubation), read-out: PADI4 activity, dose-response data of Figure S15 (individual replicates)

T1 sequence (Q9UM07 whole entry): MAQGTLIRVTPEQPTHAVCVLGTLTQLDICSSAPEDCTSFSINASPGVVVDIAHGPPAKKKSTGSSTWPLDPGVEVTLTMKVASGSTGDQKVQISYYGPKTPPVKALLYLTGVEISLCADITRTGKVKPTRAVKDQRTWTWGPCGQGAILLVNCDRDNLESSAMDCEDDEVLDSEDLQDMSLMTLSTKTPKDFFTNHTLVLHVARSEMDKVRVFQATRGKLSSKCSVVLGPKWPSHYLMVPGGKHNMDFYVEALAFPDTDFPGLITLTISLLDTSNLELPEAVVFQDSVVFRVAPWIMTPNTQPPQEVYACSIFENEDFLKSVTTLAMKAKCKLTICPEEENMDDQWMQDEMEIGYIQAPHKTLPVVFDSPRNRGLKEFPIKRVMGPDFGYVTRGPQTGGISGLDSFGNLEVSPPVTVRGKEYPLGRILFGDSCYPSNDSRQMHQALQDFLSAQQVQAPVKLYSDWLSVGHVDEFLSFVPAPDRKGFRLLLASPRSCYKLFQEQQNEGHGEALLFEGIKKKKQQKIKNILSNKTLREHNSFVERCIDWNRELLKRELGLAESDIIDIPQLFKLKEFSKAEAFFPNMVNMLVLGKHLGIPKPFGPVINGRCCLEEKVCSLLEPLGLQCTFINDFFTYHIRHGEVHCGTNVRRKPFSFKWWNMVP

Row | Compound | Kd [1] | IC50 [2, 3] | remaining activity at 0.01 µM [2, 4] | remaining activity at 0.03 µM [2, 4] | remaining activity at 0.1 µM [2, 4] | remaining activity at 0.3 µM [2, 4] | remaining activity at 1 µM [2, 4] | remaining activity at 30 µM [2, 4] | remaining activity at 50 µM [2, 4] | kinact/KI [1] | k2 / kinact ([1]; each replicate) | kinact [1, 5] | kinact [1, 6] | Ki ([1]; two-state reaction model) | IC50 [2, 7] | further results
1 | N=C(N)NCCC[C@@H]1NC(=O)[C@H](CCCNC(=N)CCl)NC(=O)[C@H](CC(=O)O)NC(=O)[C@H](Cc2ccc(O)cc2)NC(=O)[C@H](CCCCN)NC(=O)[C@H](CO)NC(=O)[C@@H](Cc2ccc(O)cc2)NC(=O)CSC[C@@H](C(=O)NCC(N)=O)NC(=O)[C@H](CC(=O)O)NC(=O)[C@H](CCCNC(=N)N)NC(=O)[C@@H]2CCCN2C(=O)[C@H](CO)NC1=O [Cl4] ({CH2CO}-[dY]SKYD[X1]RSPRDCG-NH2; thioether N-12) |  | 8200 ± 800 nM | 85.9% | 90.5% | 86.7% | 86.6% | 82.4% | 12.5% | 6.56% | 1170 M⁻¹ s⁻¹ |  |  | 0.00467 s⁻¹ | 4000 ± 200 nM | 66 ± 9 nM | remaining activity at 0.1 µM ([2]; 1 h, T = 1 h preincubation, read-out: PADI4 activity, normalised (Figure 4b dose-response)): 27.3%; remaining activity at 10 µM [2, 4]: 34.1%
2 | N=C(N)NCCC[C@@H]1NC(=O)[C@H](CC(=O)O)NC(=O)[C@H](Cc2ccc(O)cc2)NC(=O)[C@H](CCCCN)NC(=O)[C@H](CO)NC(=O)[C@@H](Cc2ccc(O)cc2)NC(=O)CSC[C@@H](C(=O)NCC(N)=O)NC(=O)[C@H](CC(=O)O)NC(=O)[C@H](CCCNC(=N)N)NC(=O)[C@@H]2CCCN2C(=O)[C@H](CO)NC(=O)[C@H](CCCNC(=N)N)NC1=O [Arg4] ({CH2CO}-[dY]SKYDRRSPRDCG-NH2; thioether N-12) | 2000 ± 200 nM | > 100000 nM |  |  |  | 101% |  |  |  |  |  |  |  |  |  | 

The next lines start with results.

Row | Kd [1] | IC50 [2, 3] | remaining activity at 0.01 µM [2, 4] | remaining activity at 0.03 µM [2, 4] | remaining activity at 0.1 µM [2, 4] | remaining activity at 0.3 µM [2, 4] | remaining activity at 1 µM [2, 4] | remaining activity at 30 µM [2, 4] | remaining activity at 50 µM [2, 4] | kinact/KI [1] | k2 / kinact ([1]; each replicate) | kinact [1, 5] | kinact [1, 6] | Ki ([1]; two-state reaction model) | IC50 [2, 7] | Compound | further results
3 | 1700 ± 400 nM | > 20000 nM | 92.6% | 96.4% | 92.1% | 93.7% | 86.6% | 41.5% | 25.9% |  |  |  |  |  |  | CC(=N)NCCC[C@@H]1NC(=O)[C@H](CC(=O)O)NC(=O)[C@H](Cc2ccc(O)cc2)NC(=O)[C@H](CCCCN)NC(=O)[C@H](CO)NC(=O)[C@@H](Cc2ccc(O)cc2)NC(=O)CSC[C@@H](C(=O)NCC(N)=O)NC(=O)[C@H](CC(=O)O)NC(=O)[C@H](CCCNC(=N)N)NC(=O)[C@@H]2CCCN2C(=O)[C@H](CO)NC(=O)[C@H](CCCNC(=N)N)NC1=O [Me4] ({CH2CO}-[dY]SKYD[Orn(acetimidoyl)]RSPRDCG-NH2; thioether N-12) | remaining activity at 0.003 µM [2, 4]: 91%; remaining activity at 3 µM [2, 4]: 84.6%
4 |  | > 50000 nM |  |  |  |  |  |  |  | 1530 M⁻¹ s⁻¹ | 0.0026 s⁻¹ and 0.0019 s⁻¹ | 0.0014 s⁻¹ | 0.002 s⁻¹ | 1300 ± 500 nM | 870 ± 60 nM | CC[C@H](C)[C@@H]1NC(=O)[C@@H](Cc2ccc(O)cc2)NC(=O)CSC[C@@H](C(=O)NCC(N)=O)NC(=O)[C@H](CO)NC(=O)[C@H](CCCNC(=N)CF)NC(=O)[C@H](CC(=O)O)NC(=O)[C@H](CCCNC(=N)CF)NC(=O)[C@H](CC(C)C)NC(=O)CNC(=O)[C@H](Cc2c[nH]c3ccccc23)NC1=O [cP4_2, yIWGL(2)D(2)SCG] ({CH2CO}-[dY]IWGL[Orn(fluoroacetimidoyl)]D[Orn(fluoroacetimidoyl)]SCG-NH2; thioether N-10) | remaining activity at 0.003 µM [2, 8]: 107%; remaining activity at 0.01 µM [2, 8]: 107%; remaining activity at 0.03 µM [2, 9]: 107%; remaining activity at 0.1 µM [2, 9]: 108%; remaining activity at 0.1 µM [2, 10]: 93.3%; remaining activity at 0.3 µM [2, 9]: 106%; remaining activity at 0.3 µM [2, 10]: 74.9%; remaining activity at 1 µM [2, 9]: 107%; remaining activity at 1 µM [2, 10]: 42.9%; remaining activity at 3 µM [2, 9]: 105%; remaining activity at 3 µM [2, 10]: 7.63%; remaining activity at 10 µM [2, 9]: 101%; remaining activity at 10 µM [2, 10]: 3.92%; remaining activity at 30 µM [2, 9]: 80.9%; remaining activity at 50 µM ([2]; T=0 (no preincubation), read-out: PADI4 activity normalised to 0.1% DMSO): 64.4%
5 |  |  |  |  |  |  |  |  |  |  | 0.0019 s⁻¹ | 0.0027 s⁻¹ | 0.00317 s⁻¹ | 810 ± 80 nM | 180 nM | CC[C@H](C)[C@@H]1NC(=O)[C@H](CCCNC(=N)N)NC(=O)[C@H](Cc2ccc(O)cc2)NC(=O)[C@H](CCCNC(=N)N)NC(=O)[C@H](CCC(=O)O)NC(=O)[C@H](CCCNC(=N)CF)NC(=O)[C@H](CC(N)=O)NC(=O)[C@H](CC(C)C)NC(=O)[C@@H](Cc2ccc(O)cc2)NC(=O)CSC[C@@H](C(=O)NCC(N)=O)NC(=O)[C@H](CO)NC1=O [cP4_18] ({CH2CO}-[dY]LN[Orn(fluoroacetimidoyl)]ERYRISCG-NH2; thioether N-11) | remaining activity at 0.003 µM [2, 11]: 101%; remaining activity at 0.01 µM [2, 11]: 99.7%; remaining activity at 0.03 µM [2, 11]: 95.4%; remaining activity at 0.1 µM [2, 11]: 77.6%; remaining activity at 0.3 µM [2, 11]: 35.4%; remaining activity at 1 µM [2, 11]: 10%; remaining activity at 0.003 µM [2, 12]: 106%; remaining activity at 0.01 µM [2, 12]: 108%; remaining activity at 0.03 µM [2, 12]: 107%; remaining activity at 0.1 µM [2, 12]: 110%; remaining activity at 0.3 µM [2, 12]: 107%; remaining activity at 1 µM [2, 12]: 102%; remaining activity at 3 µM [2, 12]: 94.6%; remaining activity at 10 µM [2, 12]: 64.3%; remaining activity at 30 µM [2, 12]: 31.1%; remaining activity at 50 µM [2, 12]: 21.4%
